Source: patent US12156880B2, “Heterocyclic RIP1 kinase inhibitors” (Rigel Pharmaceuticals, Inc., priority 2021, dated 2024)

Legend:
RIPK1 = target: T1, RIPK1 (Homo sapiens, UniProt Q13546); test: RIPK1 ADP-Glo biochemical kinase assay; conditions: read-out: RIPK1 ADP-Glo Kinase (IC50)
T1 sequence (Q13546 1-671): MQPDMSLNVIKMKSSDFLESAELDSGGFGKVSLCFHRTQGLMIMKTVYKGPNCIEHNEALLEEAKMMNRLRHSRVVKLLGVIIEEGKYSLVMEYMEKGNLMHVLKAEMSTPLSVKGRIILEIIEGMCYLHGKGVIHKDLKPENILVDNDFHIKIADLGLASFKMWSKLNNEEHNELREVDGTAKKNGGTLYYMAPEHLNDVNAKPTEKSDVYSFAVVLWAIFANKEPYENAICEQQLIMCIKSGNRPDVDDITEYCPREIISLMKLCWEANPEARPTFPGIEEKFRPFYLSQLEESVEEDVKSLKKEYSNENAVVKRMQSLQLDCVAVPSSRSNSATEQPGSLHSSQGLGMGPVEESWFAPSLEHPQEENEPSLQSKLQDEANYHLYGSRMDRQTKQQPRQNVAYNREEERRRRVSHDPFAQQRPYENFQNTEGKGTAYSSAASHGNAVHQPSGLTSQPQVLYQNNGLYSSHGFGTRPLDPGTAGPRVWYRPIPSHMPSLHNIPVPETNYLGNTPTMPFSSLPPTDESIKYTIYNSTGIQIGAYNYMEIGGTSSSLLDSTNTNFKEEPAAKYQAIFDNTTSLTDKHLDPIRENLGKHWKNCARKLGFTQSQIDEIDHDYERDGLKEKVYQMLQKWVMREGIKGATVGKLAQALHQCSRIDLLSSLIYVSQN
Method: In this example, compounds of the disclosure were evaluated using a biochemical assay using the ADP-Glo™ technology.
ADP-Glo™ (Promega, Madison, WI, USA) reagents were thawed at ambient temperature. Kinase Detection Reagent was prepared by mixing kinase detection buffer with the lyophilized kinase detection substrate.
A […] stock volume of 5× Reaction Kinase Buffer was made by mixing 1000 μl of 1M MgCl2, 500 μl of 1M Tris-HCL pH7.4, 0.5 mg/ml (25 mg) of BSA, and 3475 μl of distilled H2O. A 3 ml 2× working stock volume of Reaction Kinase Buffer was made containing a final concentration of 100 μM DTT and 4 mM MnCl2.
Components of RIPK1 enzyme (Rigel Pharmaceuticals, South San Francisco, CA, USA) were thawed on ice. Diluted RIPK1 was prepared in 1× Kinase Reaction Buffer (diluted from 2× buffer) to 31 ng/well.
1.0 ul of diluted compound was added to a 384 well plate in duplicate. […] The final reaction volume was 5.0 μl.
The plate was quickly centrifuged and the reaction was incubated at 30° C. for 30 minutes. Adding 5 μl of ADP-Glo™ terminated the reaction. The plate was quickly centrifuged and the reaction was incubated at room temperature for 40 minutes. Kinase Detection Reagent was then added and incubated at room temperature for 30 minutes. The relative light unit (RLU) of kinase reaction was determined by luminescent (Luminescence 0.1 s) using a Wallac Victor2 Luminometer (PerkinElmer, Waltham, MA, USA).

U937 cells = test: U937 cell necroptosis assay (TNFa + zVAD, CellTiter-Glo recovery); assay type: cell-based; conditions: Homo sapiens, U-937, 18 h, TNFa 2 ng/mL + zVAD-fmk, read-out: U937 Zvad TNF CTG Recovery, U937, TNFa + zVAD (IC50)
Method: In this example, U937 and L929 cells were exposed to compounds of the present disclosure and a cell necroptosis assay was conducted to evaluate the compounds' activity against human RIP1 and murine RIP1.
U937 and L929 cells were obtained from the American Type Culture Collection (Manassas, VA, USA). Both cells were maintained in logarithmic growth phase in complete RPMI 1640 media (Sigma, ST Louis, MO, USA) supplemented with 10% fetal bovine serum (Sigma, ST Louis, MO, USA) at 37° C. with 5% CO2. For necroptosis assay, L929 cells were plated for 18 h in 100 μL/well medium at 10K cells/well in Costar 96-well black clear-bottom plates (Fisher Scientific, Hampton, NH, USA); U937 cells were plated on the day of the assay in 50 μL/well medium containing 60 uM zVAD-fmk (Lonza, Basel, Switzerland) at 50K cells/well. Medium from L929 cells were removed from the 96-well plates and replaced with 50 μL/well new medium containing 40 uM zVAD-fmk. Each compound of the present disclosure evaluated in this example was serially diluted in DMSO from 2.5 mM in 4-fold dilutions, and then diluted 1:125 in complete medium. 50 μL/well 2× of the compound was then added to the cells in the plates. The cells were pre-incubated with the compound for 1 hour at 37° C. with 5% CO2 and before addition of 10 μL/well 11×TNFa (Peprotech, Rocky Hill, NJ, USA) to give a final concentration of 2 ng/mL for TNFa. The relative amount of necroptosis cells was determined by luminescent using a Wallac Victor2 Luminometer (PerkinElmer, Waltham, MA, USA) and a CellTiter-Glo® Luminescent Cell Viability Reagent Assay (Promega, Madison, WI, USA) added per manufacturer instructions after 18 hours of TNFa stimulation at 37° C. with 5% CO2. This example establishes that embodiments of the compounds described herein have unexpectedly potent activity against human RIP1 and murine RIP1, which allows their assessment in in vivo mouse models of disease.

Row | IC50 (RIPK1) [nM] | Structure (SMILES) | IC50 (U937 cells) [nM]
1 | 4530 | CN1C(=O)[C@@H](NC(=O)c2cc(Oc3ccc(C(F)(F)F)nc3)ccn2)COc2ccc(C#CC(C)(C)O)cc21 [I-80, (S)—N-(7-(3-hydroxy-3-methylbut-1-yn-1-yl)-5-methyl-4-oxo-2,3,4,5-tetrahydrobenzo[b][1,4]oxazepin-3-yl)-4-((6-(trifluoromethyl)pyridin-3-yl)oxy)picolinamide] | 7310
2 | – | CN1C(=O)[C@@H](NC(=O)n2cc(Cc3ccc(F)nc3)cn2)COc2ccc(Br)cc21 [I-24, (S)—N-(7-Bromo-5-methyl-4-oxo-2,3,4,5-tetrahydrobenzo[b][1,4]oxazepin-3-yl)-4-((6-fluoropyridin-3-yl)methyl)-1H-pyrazole-1-carboxamide] | 69.8
3 | 2150 | CN1C(=O)[C@@H](NC(=O)c2cc(Oc3ccccn3)ccn2)COc2ccc(C#CC(C)(C)O)cc21 [I-128, (S)—N-(7-(3-hydroxy-3-methylbut-1-yn-1-yl)-5-methyl-4-oxo-2,3,4,5-tetrahydrobenzo[b][1,4]oxazepin-3-yl)-4-(pyridin-2-yloxy)picolinamide] | 199000
4 | – | Cc1cccc(Cc2cnn(C(=O)N[C@H]3COc4ccc(Br)cc4N(C)C3=O)c2)n1 [I-19, (S)—N-(7-Bromo-5-methyl-4-oxo-2,3,4,5-tetrahydrobenzo[b][1,4]oxazepin-3-yl)-4-((6-methylpyridin-2-yl)methyl)-1H-pyrazole-1-carboxamide] | 264
5 | 2280 | CN1C(=O)[C@@H](NC(=O)c2cc(Oc3ccccn3)ccn2)COc2ccc(C#CC3(O)COC3)cc21 [I-129, (S)—N-(7-((3-hydroxyoxetan-3-yl)ethynyl)-5-methyl-4-oxo-2,3,4,5-tetrahydrobenzo[b][1,4]oxazepin-3-yl)-4-(pyridin-2-yloxy)picolinamide] | 1200
6 | – | CN1C(=O)[C@@H](NC(=O)n2cc(Cc3cccnn3)cn2)COc2ccc(Br)cc21 [I-25, (S)—N-(7-Bromo-5-methyl-4-oxo-2,3,4,5-tetrahydrobenzo[b][1,4]oxazepin-3-yl)-4-(pyridazin-3-ylmethyl)-1H-pyrazole-1-carboxamide] | 4120
7 | – | CN1C(=O)[C@@H](NC(=O)c2cc(O)ccn2)COc2ccc(C#CC3(O)COC3)cc21 [I-89, (S)-4-hydroxy-N-(7-((3-hydroxyoxetan-3-yl)ethynyl)-5-methyl-4-oxo-2,3,4,5-tetrahydrobenzo[b][1,4]oxazepin-3-yl)picolinamide] | 28200
8 | – | CN1C(=O)[C@@H](NC(=O)c2cc(O)ccn2)COc2ccc(C#CC(C)(C)O)cc21 [I-86, (S)-4-hydroxy-N-(7-(3-hydroxy-3-methylbut-1-yn-1-yl)-5-methyl-4-oxo-2,3,4,5-tetrahydrobenzo[b][1,4]oxazepin-3-yl)picolinamide] | 59600
9 | 467 | Cc1noc(C)c1Cc1ccnc(C(=O)N[C@H]2COc3ccc(C#CC(C)(C)O)cc3N(C)C2=O)c1 [I-68, (S)-4-((3,5-dimethylisoxazol-4-yl)methyl)-N-(7-(3-hydroxy-3-methylbut-1-yn-1-yl)-5-methyl-4-oxo-2,3,4,5-tetrahydrobenzo[b][1,4]oxazepin-3-yl)picolinamide] | 7160
10 | 392 | CN1C(=O)[C@@H](NC(=O)c2cc(Oc3ccc(C(F)(F)F)nc3)ccn2)COc2ccc(C#CC3(O)COC3)cc21 [I-81, (S)—N-(7-((3-hydroxyoxetan-3-yl)ethynyl)-5-methyl-4-oxo-2,3,4,5-tetrahydrobenzo[b][1,4]oxazepin-3-yl)-4-((6-(trifluoromethyl)pyridin-3-yl)oxy)picolinamide] | 5290
11 | 6470 | CN1C(=O)[C@@H](NC(=O)n2cc(Oc3cccc(F)n3)cn2)COc2ccc(Br)cc21 [I-110, (S)—N-(7-Bromo-5-methyl-4-oxo-2,3,4,5-tetrahydrobenzo[b][1,4]oxazepin-3-yl)-4-((6-fluoropyridin-2-yl)oxy)-1H-pyrazole-1-carboxamide] | 9070
12 | 326 | Cc1noc(C)c1Cc1ccnc(C(=O)N[C@H]2COc3ccc(C#CC4(O)COC4)cc3N(C)C2=O)c1 [I-69, (S)-4-((3,5-dimethylisoxazol-4-yl)methyl)-N-(7-((3-hydroxyoxetan-3-yl)ethynyl)-5-methyl-4-oxo-2,3,4,5-tetrahydrobenzo[b][1,4]oxazepin-3-yl)picolinamide] | 2830

Row | Structure (SMILES) | IC50 (RIPK1) [nM] | IC50 (U937 cells) [nM]
13 | CN1C(=O)[C@@H](NC(=O)n2cc(Cc3ncccn3)cn2)COc2ccc(C#CC(C)(C)O)cc21 [I-31, (S)—N-(7-(3-Hydroxy-3-methylbut-1-yn-1-yl)-5-methyl-4-oxo-2,3,4,5-tetrahydrobenzo[b][1,4]oxazepin-3-yl)-4-(pyrimidin-2-ylmethyl)-1H-pyrazole-1-carboxamide] | 106 | 1980
14 | CN1C(=O)[C@@H](NC(=O)n2cc(Cc3ccc(F)nc3F)cn2)COc2ccc(Br)cc21 [I-49, (S)—N-(7-Bromo-5-methyl-4-oxo-2,3,4,5-tetrahydrobenzo[b][1,4]oxazepin-3-yl)-4-((2,6-difluoropyridin-3-yl)methyl)-1H-pyrazole-1-carboxamide] | 207 | 170
15 | CN1C(=O)[C@@H](NC(=O)n2cc(Cc3cccnn3)cn2)COc2ccc(C#CC(C)(C)O)cc21 [I-17, (S)—N-(7-(3-Hydroxy-3-methylbut-1-yn-1-yl)-5-methyl-4-oxo-2,3,4,5-tetrahydrobenzo[b][1,4]oxazepin-3-yl)-4-(pyridazin-3-ylmethyl)-1H-pyrazole-1-carboxamide] | 111 | 715
16 | CN1C(=O)[C@@H](NC(=O)n2cc(Cc3ncccn3)cn2)COc2ccc(Br)cc21 [I-30, (S)—N-(7-Bromo-5-methyl-4-oxo-2,3,4,5-tetrahydrobenzo[b][1,4]oxazepin-3-yl)-4-(pyrimidin-2-ylmethyl)-1H-pyrazole-1-carboxamide] | 480 | 7210
17 | CN1C(=O)[C@@H](NC(=O)n2cc(Cc3ccccn3)cn2)COc2ccc(C#CC(C)(C)O)cc21 [I-8, (S)—N-(7-(3-Hydroxy-3-methylbut-1-yn-1-yl)-5-methyl-4-oxo-2,3,4,5-tetrahydrobenzo[b][1,4]oxazepin-3-yl)-4-(pyridin-2-ylmethyl)-1H-pyrazole-1-carboxamide] | 26.4 | –
18 | CN1C(=O)[C@@H](NC(=O)c2cc(Cc3cccc(O)n3)ccn2)COc2ccc(C#CC3(O)COC3)cc21 [I-10, (S)—N-(7-((3-hydroxyoxetan-3-yl)ethynyl)-5-methyl-4-oxo-2,3,4,5-tetrahydrobenzo[b][1,4]oxazepin-3-yl)-4-((6-hydroxypyridin-2-yl)methyl)picolinamide] | 304 | 2830
